The record followed here is patent publication US10196381B2, “Benzimidazole-2-piperazine heterocyclic compound, pharmaceutical composition containing the same, preparation method and use thereof” (Shanghai Huilun Life Science & Technology Co., Ltd., priority 2013, dated 2019).

In the assay the target is PARP-1 enzyme (Homo sapiens (Human), UniProt P09874). The assay can be described thus: PARP enzyme activity assay (HT Universal Chemiluminescent PARP Assay Kit, histone-coated wells). Particulars: for inhibition at 0.03 µM: read-out: Inhibition (%) at 30 nM; for inhibition at 0.1 µM: read-out: Inhibition (%) at 100 nM. Type of assay: biochemical. As to the method: PARP is an enzyme responsible for post-translational modification, which may be activated by means of DNA damage. The process catalyzed by PARP in vivo is mainly NAD-dependent poly(ADP-ribosyl)ation, in which the substrates are mainly some nuclear proteins including PARP, one example of which is histone. In the present invention, the PARP activity is assayed by determining the poly(ADP-ribosyl)ation degree of histone coated in a 96-well plate in the presence of NAD, and the PARP activity under the action of a PARP inhibitor is correspondingly assayed, thereby evaluating the degree of inhibition of the compounds on PARP activity. Poly(ADP-ribosyl)ation of nuclear proteins is a post-translational modification occurred in response to DNA damage. PARP is the abbreviation of poly(ADP-ribose)polymerase, which catalyzes the attachment of poly(ADP-ribose) to an adjacent nuclear protein in the presence of NAD, thus eliciting a mechanism of DNA repair through base excision repair pathway. The level of biotin-labeled ADP-ribose binding to histone can be detected by using the HT Universal Chemiluminescent PARP Assay Kit commercially available from Trevigen Corp. […] HT Universal Chemiluminescent PARP Assay Kit with Histone-coated Strip Wells, commercially available from Trevigen (US), Catalog #: 4676-096-K. […] 4. The PARP enzyme was carefully diluted with the 1×PARP buffer just before use, the diluted enzyme solution should be used as quickly as possible and the remaining solution should be discarded. […] 2. […] 1. […] 2. […] 4. […] After washing, equal volume of the PeroxyGlow A and B solutions were uniformly mixed, 100 μl of the solution was added to each well, and the chemiluminescent signals were recorded on a plate reader immediately. The readout of each well is converted into the percent inhibition. […] Note: the readout of the positive control well is designated as 100% enzyme activity; the readout of the negative control well is designated as 0% enzyme activity; and the activity X refers to the readout from respective concentration of each sample.
Sequence of PARP-1 enzyme (P09874 whole entry): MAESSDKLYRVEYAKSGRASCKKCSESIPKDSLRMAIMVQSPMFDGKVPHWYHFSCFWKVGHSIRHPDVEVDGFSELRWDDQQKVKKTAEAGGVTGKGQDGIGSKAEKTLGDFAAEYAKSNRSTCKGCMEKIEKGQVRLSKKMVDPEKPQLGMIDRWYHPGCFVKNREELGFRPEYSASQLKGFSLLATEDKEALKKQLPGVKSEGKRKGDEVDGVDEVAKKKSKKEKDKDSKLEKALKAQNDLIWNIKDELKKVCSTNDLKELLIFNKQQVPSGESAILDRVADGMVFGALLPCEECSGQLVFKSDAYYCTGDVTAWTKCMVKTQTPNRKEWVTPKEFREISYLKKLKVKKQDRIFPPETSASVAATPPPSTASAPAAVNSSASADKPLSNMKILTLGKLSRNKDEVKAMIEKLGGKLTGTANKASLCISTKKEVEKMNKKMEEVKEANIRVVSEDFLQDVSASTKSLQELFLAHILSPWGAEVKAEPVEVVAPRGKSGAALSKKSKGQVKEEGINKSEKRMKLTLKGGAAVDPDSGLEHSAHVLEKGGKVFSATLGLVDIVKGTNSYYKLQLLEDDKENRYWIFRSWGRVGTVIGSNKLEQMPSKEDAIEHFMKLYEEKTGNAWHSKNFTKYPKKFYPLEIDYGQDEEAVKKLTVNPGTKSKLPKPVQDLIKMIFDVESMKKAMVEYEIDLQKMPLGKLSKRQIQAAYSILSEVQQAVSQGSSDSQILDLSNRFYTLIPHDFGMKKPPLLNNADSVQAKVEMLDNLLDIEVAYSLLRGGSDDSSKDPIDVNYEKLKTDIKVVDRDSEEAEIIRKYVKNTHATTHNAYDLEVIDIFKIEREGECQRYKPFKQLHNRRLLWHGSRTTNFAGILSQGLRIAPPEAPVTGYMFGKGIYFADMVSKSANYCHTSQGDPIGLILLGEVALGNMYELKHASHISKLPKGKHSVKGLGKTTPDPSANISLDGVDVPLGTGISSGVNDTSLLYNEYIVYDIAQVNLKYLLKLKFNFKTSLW

In the case of `NC(=O)c1cc(F)cc2[nH]c(N3CCN(c4ccncn4)CC3)nc12` [Compound (16), 6-fluoro-2-(4-(pyrimidin-4-yl)piperazin-1-yl)-1H-benzimidazole-4-carboxamide], the inhibition (in general, the share of the control response that was lost under treatment) at 0.03 µM was 78% and the inhibition at 0.1 µM is 91%.

On to `NC(=O)c1cccc2[nH]c(N3CCN(c4ccnc(C(F)(F)F)c4)CC3)nc12` [Compound (13), 2-(4-(2-trifluoromethylpyridin-4-yl)piperazin-1-yl)-1H-benzimidazole-4-carboxamide], for which the inhibition at 0.03 µM amounted to 43% and the inhibition at 0.1 µM was determined as 69%.

For `CNC(=O)c1cccnc1N1CCN(c2nc3c(C(N)=O)cc(F)cc3[nH]2)CC1` [Compound (20), 6-fluoro-2-(4-(3-methylcarbamoylpyridin-2-yl)piperazin-1-yl)-1H-benzimidazole-4-carboxamide], the inhibition at 0.03 µM is 39% and the inhibition at 0.1 µM was determined as 67%.

Turning to `CNC(=O)c1cnc(N2CCN(c3nc4c(C(N)=O)cc(F)cc4[nH]3)CC2)nc1` [Compound (22), 6-fluoro-2-(4-(5-methylcarbamoylpyrimidin-2-yl)piperazin-1-yl)-1H-benzimidazole-4-carboxamide], the inhibition at 0.03 µM was determined as 71% and the inhibition at 0.1 µM is 93%.

`NC(=O)c1cc(F)cc2[nH]c(N3CCN(c4cnc(C(=O)N5CCCC5)cn4)CC3)nc12` [Compound (29), 6-fluoro-2-(4-(5-(pyrrolin-1-acyl)pyrazin-2-yl)piperazin-1-yl)-1H-benzimidazole-4-carboxamide]: the inhibition at 0.03 µM was 71% and the inhibition at 0.1 µM is 88%.

For the molecule `N#Cc1cnc(N2CCN(c3nc4c(C(N)=O)cc(F)cc4[nH]3)CC2)nc1` [Compound (19), 2-(4-(5-cyanopyrimidin-2-yl)piperazin-1-yl)-6-fluoro-1H-benzimidazole-4-carboxamide], the inhibition at 0.03 µM turned out to be 77% and the inhibition at 0.1 µM amounted to 93%.

Take `NC(=O)c1cccc2[nH]c(N3CCN(c4ccncn4)CC3)nc12` [Compound (7), 2-(4-(pyrimidin-4-yl)piperazin-1-yl)-1H-benzimidazole-4-carboxamide]: the inhibition at 0.03 µM turned out to be 73% and the inhibition at 0.1 µM was 85%.

As for `NC(=O)c1cccc2[nH]c(N3CCN(c4ncc(N)cn4)CC3)nc12` [Compound (6), 2-(4-(5-aminopyrimidin-2-yl)piperazin-1-yl)-1H-benzimidazole-4-carboxamide], the inhibition at 0.03 µM was 26% and the inhibition at 0.1 µM was found to be 54%.

With `NC(=O)c1ccc(N2CCN(c3nc4c(C(N)=O)cccc4[nH]3)CC2)nc1` [Compound (12), 2-(4-(5-carbamoylpyridin-2-yl)piperazin-1-yl)-1H-benzimidazole-4-carboxamide], the inhibition at 0.03 µM is 57% and the inhibition at 0.1 µM was determined as 77%.

For `NC(=O)c1cc(F)cc2[nH]c(N3CCN(c4ccc(C(F)(F)F)cn4)CC3)nc12` [Compound (21), 6-fluoro-2-(4-(5-trifluoromethylpyridin-2-yl)piperazin-1-yl)-1H-benzimidazole-4-carboxamide], the inhibition at 0.03 µM is 32% and the inhibition at 0.1 µM is 60%.

As to `CCNc1cccnc1N1CCN(c2nc3c(C(N)=O)cccc3[nH]2)CC1` [Compound (8), 2-(4-(3-ethylaminopyridin-2-yl)piperazin-1-yl)-1H-benzimidazole-4-carboxamide], the inhibition at 0.03 µM was determined as 8% and the inhibition at 0.1 µM came out at 16%.

Consider `NC(=O)c1cc(F)cc2[nH]c(N3CCN(c4ccc(C(F)(F)F)nc4)CC3)nc12` [Compound (32), 6-fluoro-2-(4-(6-trifluoromethylpyridine-3-yl)piperazin-1-yl)-1H-benzimidazole-4-carboxamide], for which the inhibition at 0.03 µM worked out at 66% and the inhibition at 0.1 µM came out at 84%.

With `CNC(=O)c1ncc(N2CCN(c3nc4c(C(N)=O)cc(F)cc4[nH]3)CC2)cn1` [Compound (39)], the inhibition at 0.03 µM was determined as 78% and the inhibition at 0.1 µM is 92%.

As to `N#Cc1cnc(N2CCN(c3nc4c(C(N)=O)cccc4[nH]3)CC2)nc1` [Compound (14), 2-(4-(5-cyanopyrimidin-2-yl)piperazin-1-yl)-1H-benzimidazole-4-carboxamide], the inhibition at 0.03 µM was determined as 57% and the inhibition at 0.1 µM was 78%.

Regarding `CC(C)NC(=O)c1cnc(N2CCN(c3nc4c(C(N)=O)cc(F)cc4[nH]3)CC2)cn1` [Compound (27), 6-fluoro-2-(4-(5-isopropylcarbamoylpyrazin-2-yl)piperazin-1-yl)-1H-benzimidazole-4-carboxamide], the inhibition at 0.03 µM stood at 66% and the inhibition at 0.1 µM worked out at 86%.

With `NC(=O)c1cccc2[nH]c(N3CCN(c4ncc(F)cn4)CC3)nc12` [Compound (2), 2-(4-(5-fluoropyrimidin-2-yl)piperazin-1-yl)-1H-benzimidazole-4-carboxamide], the inhibition at 0.03 µM was 42% and the inhibition at 0.1 µM was 69%.

`NC(=O)c1cccc2[nH]c(N3CCN(c4ncccn4)CC3)nc12` [Compound (1), 2-(4-(pyrimidin-2-yl)piperazin-1-yl)-1H-benzimidazole-4-carboxamide]: the inhibition at 0.03 µM stood at 59% and the inhibition at 0.1 µM is 76%.

Turning to `CCNc1cnc(N2CCN(c3nc4c(C(N)=O)cccc4[nH]3)CC2)nc1` [Compound (3), 2-(4-(5-ethylaminopyrimidin-2-yl)piperazin-1-yl)-1H-benzimidazole-4-carboxamide], the inhibition at 0.03 µM was determined as 6% and the inhibition at 0.1 µM is 13%.

Consider `CCNC(=O)c1ncc(N2CCN(c3nc4c(C(N)=O)cc(F)cc4[nH]3)CC2)cn1` [Compound (40), 2-(4-(2-ethylcarbamoylpyrimidin-5-yl)piperazin-1-yl)-6-fluoro-1H-benzimidazole-4-carboxamide], for which the inhibition at 0.03 µM was found to be 77% and the inhibition at 0.1 µM stood at 93%.

As to `NC(=O)c1cccc2[nH]c(N3CCN(c4nccc(C(F)(F)F)n4)CC3)nc12` [Compound (9), 2-(4-(4-trifluoromethylpyrimidin-2-yl)piperazin-1-yl)-1H-benzimidazole-4-carboxamide], the inhibition at 0.03 µM was determined as 16% and the inhibition at 0.1 µM was found to be 31%.

Turning to `COc1cnc(N2CCN(c3nc4c(C(N)=O)cccc4[nH]3)CC2)nc1` [Compound (5), 2-(4-(5-methoxypyrimidin-2-yl)piperazin-1-yl)-1H-benzimidazole-4-carboxamide], the inhibition at 0.03 µM amounted to 32% and the inhibition at 0.1 µM turned out to be 60%.

With `CNC(=O)c1ccc(N2CCN(c3nc4c(C(N)=O)cc(F)cc4[nH]3)CC2)nn1` [Compound (23), 6-fluoro-2-(4-(6-methylcarbamoylpyridazin-3-yl)piperazin-1-yl)-1H-benzimidazole-4-carboxamide], the inhibition at 0.03 µM was found to be 78% and the inhibition at 0.1 µM was found to be 89%.

In the case of `CN(C)C(=O)c1ccc(N2CCN(c3nc4c(C(N)=O)cc(F)cc4[nH]3)CC2)nc1` [Compound (18), 2-(4-(5-(dimethylcarbamoyl)pyridin-2-yl)piperazin-1-yl)-6-fluoro-1H-benzimidazole-4-carboxamide], the inhibition at 0.03 µM is 56% and the inhibition at 0.1 µM was found to be 77%.

Take `N#Cc1ncc(N2CCN(c3nc4c(C(N)=O)cc(F)cc4[nH]3)CC2)cn1` [Compound (38), 2-(4-(2-cyanopyrimidin-5-yl)piperazin-1-yl)-6-fluoro-1H-benzimidazole-4-carboxamide]: the inhibition at 0.03 µM was determined as 84% and the inhibition at 0.1 µM worked out at 95%.

Take `CC(C)(C)NC(=O)c1cnc(N2CCN(c3nc4c(C(N)=O)cc(F)cc4[nH]3)CC2)cn1` [Compound (28), 2-(4-(5-t-butylcarbamoylpyrazin-2-yl)piperazin-1-yl)-6-fluoro-1H-benzimidazole-4-carboxamide]: the inhibition at 0.03 µM came to 53% and the inhibition at 0.1 µM came to 78%.

On to `CN(C)C(=O)c1cnc(N2CCN(c3nc4c(C(N)=O)cc(F)cc4[nH]3)CC2)cn1` [Compound (36), 2-(4-(5-dimethylcarbamoylpyrazin-2-yl)piperazin-1-yl)-6-fluoro-1H-benzimidazole-4-carboxamide], for which the inhibition at 0.03 µM is 83% and the inhibition at 0.1 µM came out at 92%.

Turning to `CC(=O)Nc1cnc(N2CCN(c3nc4c(C(N)=O)cccc4[nH]3)CC2)nc1` [Compound (4), 2-(4-(5-acetamidopyrimidin-2-yl)piperazin-1-yl)-1H-benzimidazole-4-carboxamide], the inhibition at 0.03 µM stood at 27% and the inhibition at 0.1 µM was found to be 53%.

Regarding `NC(=O)c1cc(F)cc2[nH]c(N3CCN(c4ncc(C(F)(F)F)cn4)CC3)nc12` [Compound (34), 6-fluoro-2-(4-(5-trifluoromethylpyrimidin-2-yl)piperazin-1-yl)-1H-benzimidazole-4-carboxamide], the inhibition at 0.03 µM was found to be 36% and the inhibition at 0.1 µM worked out at 60%.
